Source: PubChem BioAssay (NCI)
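Protocol summary: plate cells (96-well), add compound at 5 concentrations, incubate 48 h, interpolate endpoints linearly. GI50 = concentration required for 50% inhibition of growth. TGI: total growth inhibition.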

What was measured:
Test in all cases: NCI tumour cell line growth inhibition, 48 h
MDA-MB-435 = test system: MDA-MB-435
NCI/ADR-RES ovarian = test system: NCI/ADR-RES ovarian
DU-145 prostate = test system: DU-145 prostate
MCF7 breast = test system: MCF7 breast
BT-549 breast = test system: BT-549 breast
T-47D breast = test system: T-47D breast

| Compound | GI50 (MDA-MB-435) [µM] | TGI (MDA-MB-435) [µM] | GI50 (NCI/ADR-RES ovarian) [µM] | TGI (NCI/ADR-RES ovarian) [µM] | GI50 (DU-145 prostate) [µM] | TGI (DU-145 prostate) [µM] | GI50 (MCF7 breast) [µM] | TGI (MCF7 breast) [µM] | GI50 (BT-549 breast) [µM] | TGI (BT-549 breast) [µM] | GI50 (T-47D breast) [µM] | TGI (T-47D breast) [µM] |
| --- | --- | --- | --- | --- | --- | --- | --- | --- | --- | --- | --- | --- |
| COc1cc(-c2nn(-c3ccc(NC(=O)Nc4ccc(Cl)c(Cl)c4)cc3)cc2-c2ccncc2)ccc1Cl | 2.87 | 8.8 | 3.24 | > 100 | 4.33 | 69.7 | 3.35 | > 100 | 3.35 | 11.2 | 3.02 | 54.6 |
| CN(CCC#N)c1ccc(/C=C(\C#N)c2cccc(C(F)(F)F)c2)cc1 | 2.07 | 6 | 3.68 | > 100 | 11.3 | > 100 | 0.544 | > 100 | 3.28 | 34.3 | 2.25 | > 100 |
| O=C(/C=C/C12c3ccccc3C(c3ccccc31)C1C(=O)N(c3ccccc3)C(=O)C12)c1ccc(Cl)cc1 (stereo not drawn) | 1.93 | 5.39 | 2.16 | 8.47 | 1.77 | 4.03 | 0.885 | > 100 | 1.37 | 2.88 |  |  |
| C=CCn1c(=O)c2cnc(Nc3ccc(N4CCN(C)CC4)cc3)nc2n1-c1ccc2c(n1)[C@@](O)(CC)CC2 | 0.226 | 0.795 | 5.69 | 33.5 | 0.939 | 35.3 | 0.344 | > 42.8 | 0.287 | 3.46 | 2.17 | > 80.7 |
| Cc1csc(/C=N/NC(=O)c2nnn(-c3ccnc4c(C(F)(F)F)cccc34)c2C)c1 | 85.3 | > 100 | > 100 | > 100 | > 100 | > 100 | > 100 | > 100 | > 100 | > 100 | 29.5 | > 100 |
| CCCCN(CCCC)c1ccc(C(=N)c2ccc(N(C)C)cc2)cc1 | 0.348 | 1.33 | 0.335 | 1.27 | 1.03 | 2.23 | 0.377 | 1.51 | 1.29 | 2.64 | 0.322 | 1.51 |
| CC[C@@]1(OC(=O)CN)C(=O)OCc2c1cc1n(c2=O)Cc2cc3cc4c(cc3nc2-1)OCO4 | < 0.0131 | 0.838 | < 0.01 | 0.015 | < 0.01 | < 0.012 | < 0.01 | > 100 | 0.0157 | 0.552 | < 0.01 | > 100 |
| Cc1cc(Cc2cc(C)c(O)c(C)c2)cc(C)c1O |  |  | 3.95 | 48.5 | 14.6 | > 100 | 3.83 | 53.7 | 3.78 | 17.6 | 4.64 | 72 |
| Cc1cc(N2CCN(C)CC2)nc(NCc2cc(Nc3ccnc4cc(Cl)ccc34)ccc2F)n1 | 1.76 | 3.9 |  |  | 2.52 | > 100 | 0.334 | 2.75 | 2.13 | 4.64 | 1.09 | 3.62 |
| CC(=O)Nc1ccc(-c2c3nc(c(-c4cc5ccccc5[n+](C)c4)c4ccc([nH]4)c(-c4ccc(NC(C)=O)cc4)c4nc(c(-c5cc6ccccc6[n+](C)c5)c5ccc2[nH]5)C=C4)C=C3)cc1 | 7.19 | 30.6 | 13.3 | 45.7 | 5.93 | 17.1 | 34.3 | > 50 | 17 | > 50 | 8.6 | 29.6 |
| Cc1cc(=O)oc2c(CN3CCCCC3)c(O)ccc12 |  | > 100 |  | > 100 |  | > 100 |  | > 100 |  | > 100 |  | > 100 |
| COc1cc([N+](=O)[O-])c(S(=O)(=O)O)cc1NS(=O)(=O)c1ccc(C)cc1 |  | > 100 |  | > 100 |  | > 100 |  | > 100 |  | > 100 |  | > 100 |
| CC1=CC[C@@H]2C(C)(C)C(=O)CC[C@@]2(C)[C@@H]1COc1ccc2ccc(=O)oc2c1 | 11.9 | 29.9 | 4.06 | 19.9 | 23.6 | 93.6 | 12.4 | 31.9 | 4.37 | 22.5 | 2.69 | 11.1 |
| COc1ccc2c(c1)[C@]1(C[C@H]1c1ccc3c(/C=C/c4ccc(CN5C[C@@H](C)O[C@@H](C)C5)cc4)n[nH]c3c1)C(=O)N2 | 3.75 | 21.8 | 2.71 | 24.9 | 4.91 | 45.6 | 1.59 | > 75.4 | 1.75 | 5.29 | 2.68 | > 86.9 |
| Cc1onc(-c2c(F)cccc2Cl)c1-c1ncc(-c2ccc(Cl)cc2)o1 | 5.59 | > 100 | 5.08 | > 100 | 14.6 | > 100 | 4.49 | > 100 | 6.5 | > 100 | 3.48 | > 100 |
| O=C(Cn1c(=O)c(-c2ccccc2)nc2ccccc21)c1ccc(Cl)cc1 | > 100 | > 100 | 48 | > 100 | 52.2 | > 100 | 71.2 | > 100 |  |  | > 100 | > 100 |
| CCOC(=O)C1=C(C)NC2SC(=O)/C(=C\c3ccccc3Cl)N2C1c1ccccc1 (stereo not drawn) | > 100 | > 100 | > 100 | > 100 | > 100 | > 100 | > 100 | > 100 | > 100 | > 100 | 33.8 | > 100 |
| CC(N=C(N)N)C(=O)O (stereo not drawn) |  | > 100 |  | > 100 |  | > 100 |  | > 100 |  | > 100 |  | > 100 |
| COc1cc2ccccc2c2cc([N+](=O)[O-])oc12 |  | 0.733 |  | 32.1 |  | 7.49 |  | 15.8 |  | 7.16 |  | > 45.6 |
| CN(Cc1cnc(N)nc1N)c1ccc(C(=O)O)cc1 | > 100 | > 100 | > 100 | > 100 | > 100 | > 100 | > 100 | > 100 | > 100 | > 100 | > 100 | > 100 |
